Test results as given in patent publication US5750826A, “Bradykinin B2 receptor modified transgenic non-human animals” (Merck & Co., Inc., priority 1996, dated 1998).
Like-named read-outs stand apart in the source and are kept apart here. Where no end group is shown, it is not given here.

Experiments:
[1] = target: T1, human B2 bradykinin receptor (Homo sapiens, UniProt P30411); assay: Competition binding against 100 pM [3H]BK at the cloned human B2 receptor (COS-7); settings: for IC50: [3H]BK binding to human B2 receptor; for competition for BK binding: COS-7; for specificity of binding (rank order): COS-7 expressed human B2 receptor
T1 construct: placing the entire B2 clone under the control of the CMV promoter; expressed in transfected cells
T1 sequence (P30411 1-364 isoform P30411-2): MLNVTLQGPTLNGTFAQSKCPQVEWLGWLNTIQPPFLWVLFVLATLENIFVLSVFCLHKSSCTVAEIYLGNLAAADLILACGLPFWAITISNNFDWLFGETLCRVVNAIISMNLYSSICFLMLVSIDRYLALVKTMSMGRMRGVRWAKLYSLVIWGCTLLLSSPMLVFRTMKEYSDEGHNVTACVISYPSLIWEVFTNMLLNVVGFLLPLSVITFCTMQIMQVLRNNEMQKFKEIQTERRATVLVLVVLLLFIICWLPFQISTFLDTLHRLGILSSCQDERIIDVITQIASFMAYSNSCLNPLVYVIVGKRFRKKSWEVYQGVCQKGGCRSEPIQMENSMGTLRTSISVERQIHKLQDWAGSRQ
Experimental: In order to enable expression of the cDNA that encodes for the B2 bradykinin receptor, COS-7 cells were transfected using LIPOFECTIN (BRL, Gaithersburg, Md.) with 50ug/10^7 cells of the B2 receptor cDNA subcloned into the eukaryotic expression vector pcDNA I-Neo (Invitrogen). Cells were then harvested after 72 hours and the membranes containing the expressed receptor protein were prepared by scraping the cells in phosphate buffered saline solution and centrifuging for ten minutes at 500× g. The cell pellet was then resuspended and homogenized with a Polytron in 20 mM N-tris(hydroxymethyl)methyl-2-aminoethane sulfonic acid (TES,pH 6.8 at room temperature) buffer containing 1 mM 1, 10 phenanthroline. The homogenate was then centrifuged for ten minutes at 500 × g. The final membrane pellet was resuspended in assay buffer (TES plus 0.1% protease free bovine serum albumin, 5 uM MK-422 (enalaprilat; Gross et al., 1981) and 140 ug/ml bacitracin using a motor-driven teflon-glass tissue homogenizer. Protein determination was performed by the method of Bradford using bovine IgG as the standard. See Bradford, M.A. Anal. Biochem. 72, 248-254 (1976).
Binding assays were then performed to determine receptor antagonist or agonist interaction. The assays utilized in the instant invention follow the method of Manning et al., J. Pharmacol. Exp. Ther., 237, 504-512 (1986). […] (BRANDEL, Gaithersburg, Md.). The tubes were rinsed two times with 4 ml ice-cold […] and the filter bound radioactivity was quantitated by liquid scintillation counting. […] The competition and saturation experiments were analyzed using the EBDA program of McPherson. See McPherson, G.A. J Pharmacol. Methods 14, 213-218 (1985).

[2] = target: T2, mouse B2 bradykinin receptor (Mus musculus, UniProt P32299); assay: Competition binding using 100 pM [3H]BK at the expressed mouse B2 bradykinin receptor
T2 construct: The PCR product begins 99 bp upstream of the initiator methionine codon and ends 49 bp downstream of the stop codon; expressed in transfected cells; host or cells: COS-7 (transient), pcDNAI-Neo
T2 sequence (P32299 1-366 isoform P32299-2): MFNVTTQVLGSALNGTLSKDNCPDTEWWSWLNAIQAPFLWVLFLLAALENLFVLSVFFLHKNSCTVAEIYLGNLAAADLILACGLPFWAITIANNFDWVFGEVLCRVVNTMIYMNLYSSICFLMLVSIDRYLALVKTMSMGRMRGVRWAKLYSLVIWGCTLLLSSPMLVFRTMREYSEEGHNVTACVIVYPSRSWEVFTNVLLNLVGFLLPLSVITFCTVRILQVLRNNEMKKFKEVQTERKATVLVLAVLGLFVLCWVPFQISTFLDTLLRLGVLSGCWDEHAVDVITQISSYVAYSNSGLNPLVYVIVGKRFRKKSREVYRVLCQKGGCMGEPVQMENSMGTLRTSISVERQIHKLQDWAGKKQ
Experimental: (§1) Binding assays were then performed to determine receptor antagonist or agonist interaction. The assays utilized in the instant invention follow the method of Manning et al., J. Pharmacol. Exp. Ther., 237, 504-512 (1986). [^3 H]BK at various concentrations was incubated for 60 minutes at 25° C. with approximately 50ug membrane protein from COS-7 cells in a volume of 1 ml. The assay was terminated by filtration over Whatman GF/B filters presoaked for 3 hours in 0.1 % polyethyleneimine using a BRANDEL M-24 CELL […] (BRANDEL, Gaithersburg, Md.). The tubes were rinsed two times with 4 ml ice-cold […] and the filter bound radioactivity was quantitated by liquid scintillation counting. Nonspecific binding was determined by performing incubation in the presence of 1 uM BK and generally represents less than 5% of the total binding at 100pM ^3 H]BK. Competition binding experiments, in the presence of 100pM[^3 H]BK, were performed with varying concentrations of the test compound(s). The competition and saturation experiments were analyzed using the EBDA program of McPherson. See McPherson, G.A. J Pharmacol. Methods 14, 213-218 (1985).
To verify the pharmacological properties of the mouse bradykinin B2 receptor the coding sequence of the mouse B2 bradykinin receptor was isolated by PCR (Perkin Elmer/Cetus) using a Techne thermocycler with the template being the EcoR I by Hind III genomic fragment in pSP72 and the 5' primer 5'-[…]-3' (SEQ.ID.NO.:8) and the 3' primer 5'- […]-3' (SEQ.ID.NO.:9). The PCR product was subcloned into the Hind III and Xba I sites of the eukaryotic expression vector pcDNAI-Neo (Invitrogen). The PCR product begins 99 bp upstream of the initiator methionine codon and ends 49 bp downstream of the stop codon. The DNA sequence analysis using Sequenase (US Biochemical) of the subcloned PCR product confirmed that the sequence was identical to that in the original genomic fragment.

[3] = system: rat vas deferens; settings: cited from earlier work; for pre- or postsynaptic BK like responses: rat vas deferens
[4] = system: B1 receptor; settings: cited from earlier work
[5] = system: B2 receptor; settings: cited from earlier work
[6] = target: T2, mouse B2 bradykinin receptor; assay: Effect of guanine nucleotides on binding of BK to membranes (mouse B2 receptor, COS-7); settings: increasing concentrations of guanine nucleotide
Text: The binding of BK to membranes was reduced by increasing concentrations of GTP, guanosine 5'-O-(3-thiotriphosphate) or 5'guanylylimidodiphosphate.

[7] = system: murine AB2.1 ES cells, pBS-KO-1 transformants; assay: FIAU counter-selection of pBS-KO-1 ES cell transformants; assay type: cell-based, mouse; settings: FIAU 0.2 μM
Experimental: Targeted alteration of the bradykinin B2 gene in murine ES cells The gene replacement vector used in the B2 gene disruption experiments was the pBS-KO-1 vector. When this vector recombined with the wild-type B2 allele to generate the B2 knock-out (B2 KO), the entire coding sequence for the B2 receptor was deleted (FIG. 2). The mouse embryonic stem cell line AB2.1 was electroporated with Not I -linearized pBS-KO-1 in multiple experiments. All AB2.1 ES cells were cultured on SNL feeder cells as described (Robertson, in Teratocarcinomas and embryonic stem cells, IRL Press, pp. 71-112 (1987)). Electroporations were performed with 4×10^6 ES cells and 25 μg linearized pBS-KO-l in 0.8 ml electroporation buffer (Specialty Media, Inc.) at 300v, 250 μF using a Bio-Rad Gene Pulser. ES cell transformants were selected with the antibiotic geneticin (Gibco G418: 200 μg/ml active G418), and some transformants were counter-selected with FIAU (Bristol Myers Squibb; 0.2 μM) for enhancement of homologous recombinants. Murine leukemia inhibitory factor (LIF; ESGRO, Gibco BRL, Inc.) was used at 1000 U/ml. […] G418-and FIAU-resistant ES clones were isolated by picking and growing individual colonies, and their genomic DNAs were prepared from AB2.1 5 KO-I-transformants as described (Laird et al., Nucleic Acids Res. 19:4293 (1991).

[8] = target: T2, mouse B2 bradykinin receptor; assay: Saturation binding to whole COS cells transiently expressing the mouse B2 receptor; settings: single high affinity site, read-out: KD for [3H]BK
Experimental: as §1, with “[^3 H]BK at various concentrations was incubated for 60 minutes at 25° C. with approximately 50ug membrane protein from COS-7 cells in a volume of 1 ml.” left out
To verify the pharmacological properties of the mouse bradykinin B2 receptor the coding sequence of the mouse B2 bradykinin receptor was isolated by PCR (Perkin Elmer/Cetus) using a Techne thermocycler with the template being the EcoR I by Hind III genomic fragment in pSP72 and the 5' primer 5'-[…]-3' (SEQ.ID.NO.:8) and the 3' primer 5'- […]-3' (SEQ.ID.NO.:9). […]

[9] = expressed mouse B2 receptor, 100 pM [3H]BK

Compound: D-Arg^0-[Hyp^2,3, Thi^5,8 D-Phe^7 ]BK
- IC50 [1]: 0.027 µM

Compound: N=C(N)NCCC[C@H](N)C(=O)N1CCC[C@H]1C(=O)N1CCC[C@H]1C(=O)NCC(=O)N[C@@H](Cc1ccccc1)C(=O)N[C@@H](CO)C(=O)N1CCC[C@H]1C(=O)N[C@@H](Cc1ccccc1)C(=O)O [Des-Arg^9 BK]
- inhibition at 10 µM ([1]; 10 uM, human B2 receptor): 18%
- affinity [2, 9]: very low affinity
- IC50 ([2]; expressed mouse B2 receptor, 100 pM [3H]BK, read-out: IC50): 6 µM
- pre- or postsynaptic BK like responses [3]: inactive
- potency as B1 receptor agonist relative to BK [4]: higher potency than BK
- activity at B2 receptors [5]: inactive at B2 receptors

Compound: endothelin: peptide
- competition for BK binding ([1]; human B2 receptor): No competition for BK binding

Compound: Nc1nc2c(ncn2[C@@H]2O[C@H](COP(=O)(O)OP(=O)(O)OP(=O)(O)O)[C@@H](O)[C@H]2O)c(=O)[nH]1 [GTP, guanosine triphosphate]
- binding of BK to membranes [6]: reduced

Compound: CSCC[C@H](N)C(=O)N[C@@H](CCCCN)C(=O)N[C@@H](CCCNC(=N)N)C(=O)N1CCC[C@H]1C(=O)N1CCC[C@H]1C(=O)NCC(=O)N[C@@H](Cc1ccccc1)C(=O)N[C@@H](CO)C(=O)N1CCC[C@H]1C(=O)N[C@@H](Cc1ccccc1)C(=O)N[C@@H](CCCNC(=N)N)C(=O)O [met-lys-BK]
- specificity of binding (rank order) [1]: BK>lys-BK>met-lys-BK

Compound: Nc1nc2c(ncn2[C@@H]2O[C@H](COP(=O)(O)OP(=O)(O)NP(=O)(O)O)[C@@H](O)[C@H]2O)c(=O)[nH]1 [5'guanylylimidodiphosphate]
- binding of BK to membranes [6]: reduced

Compound: N=C(N)NCCC[C@H](NC(=O)[C@H](Cc1ccccc1)NC(=O)[C@@H]1CCCN1C(=O)[C@H](CO)NC(=O)[C@H](Cc1ccccc1)NC(=O)CNC(=O)[C@@H]1CCCN1C(=O)[C@@H]1CCCN1C(=O)[C@H](CCCNC(=N)N)NC(=O)[C@@H](N)CCCCN)C(=O)O [kallidin]
- specificity of binding (rank order) [1]: BK>lys-BK>met-lys-BK
- affinity [2, 9]: high (subnanomolar) affinity

Compound: angiotensin II: peptide (DRVYIHPF; Angiotensin-2; UniProt P01019 25-32, looked up)
- competition for BK binding ([1]; human B2 receptor): No competition for BK binding

Compound: CC[C@H](C)[C@@H]1NC(=O)[C@H](Cc2ccc(O)cc2)NC(=O)[C@@H](N)CSSC[C@@H](C(=O)N2CCC[C@H]2C(=O)N[C@@H](CC(C)C)C(=O)NCC(N)=O)NC(=O)[C@H](CC(N)=O)NC(=O)[C@H](CCC(N)=O)NC1=O [oxytocin]
- competition for BK binding ([1]; human B2 receptor): No competition for BK binding

Compound: [Thi^5,8,D-Phe^7 ]BK
- IC50 [1]: 0.18 µM

Compound: neurotensin
- competition for BK binding ([1]; human B2 receptor): No competition for BK binding

Compound: angiotensin I: peptide (DRVYIHPFHL; Angiotensin-1; UniProt P01019 25-34, looked up)
- competition for BK binding ([1]; human B2 receptor): No competition for BK binding

Compound: O=c1[nH]c(=O)n([C@@H]2O[C@H](CO)[C@@H](O)[C@@H]2F)cc1I [FIAU, 1-(2-deoxy 2-fluoro-B-D-arabinofluranosyl)-5-iodouracil]
- fewer background pBS-KO-1 transformants [7]: about eleven

Compound: N=C(N)NCCC[C@H](NC(=O)[C@@H](N)CCCCN)C(=O)N1CCC[C@H]1C(=O)N1CCC[C@H]1C(=O)NCC(=O)N[C@@H](Cc1ccccc1)C(=O)N[C@@H](CO)C(=O)N1CCC[C@H]1C(=O)N[C@@H](Cc1ccccc1)C(=O)O [[des-Arg^10]-kallidin]
- IC50 [2]: 25 µM
- affinity [2, 9]: very low affinity

Compound: [^3 H]BK: radioligand [3H]BK used in binding assays (RPPGFSPFR; also: tritium label; UniProt P01042 381-389, looked up)
- Kd [8]: 0.0002 ± 3e-05 µM

Compound: Nc1nc2c(ncn2[C@@H]2O[C@H](COP(=O)(O)OP(=O)(O)OP(O)(O)=S)[C@@H](O)[C@H]2O)c(=O)[nH]1 [guanosine 5'-O-(3-thiotriphosphate)]
- binding of BK to membranes [6]: reduced

Compound: Des-Arg^9,LeuBK: B1 antagonist
- inhibition of BK binding ([1]; 10 uM, human B2 receptor): 11%
- antagonism of BK responses ([3]; high concentrations, vas deferens): failed to antagonize BK responses
- pre- or postsynaptic BK like responses [3]: inactive
